According to patent US11000033B2, “Ketone or oxime compound, and herbicide” (NISSAN CHEMICAL CORPORATION, priority 2014, dated 2021):

Tests used:
Assay type in all cases: in vivo
[1] = test system: transplanted rice plant; experiment: Test Example 1: effect on crop, application before weed generation in submerged conditions (symbol a); conditions: application herbicide amount 320 g/ha
Outline: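 Rice at 2.5 leaf stage transplanted into submerged soil (4 cm depth) sown with three weed species; herbicide applied before weed emergence.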

[2] = test system: Monochoria vaginalis; experiment: Test Example 1: herbicidal activity, application before weed generation in submerged conditions (symbol C); conditions: application herbicide amount 320 g/ha
Outline: (§1)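 Application before weed emergence: an aqueous dilution of the emulsion formulation was poured onto the surface of 4 cm-deep floodwater on the day of sowing. Effect was judged after 3 weeks (greenhouse, 25–30 °C).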

[3] = test system: Setaria viridis; experiment: Test Example 5: herbicidal effect by foliage application, plastic box (symbol G); conditions: 320 g/ha, 3 weeks after application
Outline: (§2)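 Herbicide, formulated as an emulsion and diluted in water, is sprayed onto the aerial parts of 14-day seedlings. These were grown at 25° C. to 30° C. in sterilized diluvial soil; effects are graded after 3 weeks.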

[4] = test system: Digitaria ciliaris; experiment: Test Example 5: herbicidal effect by foliage application, plastic box (symbol F); conditions: 320 g/ha, 3 weeks after application
Outline: as §2

[5] = test system: Scirpus juncoides; experiment: Test Example 1: herbicidal activity, application before weed generation in submerged conditions (symbol B); conditions: application herbicide amount 320 g/ha
Outline: as §1

[6] = test system: Alopecurus myosuroides; experiment: Test Example 5: herbicidal effect by foliage application, plastic box (symbol J); conditions: 320 g/ha, 3 weeks after application
Outline: as §2

[7] = test system: Echinochloa oryzacola Vasing.; experiment: Test Example 1: herbicidal activity, application before weed generation in submerged conditions (symbol A); conditions: application herbicide amount 320 g/ha
Outline: as §1

[8] = test system: Apera spica-venti; experiment: Test Example 5: herbicidal effect by foliage application, plastic box (symbol L); conditions: 320 g/ha, 3 weeks after application
Outline: as §2

[9] = test system: Avena fatua; experiment: Test Example 5: herbicidal effect by foliage application, plastic box (symbol I); conditions: 320 g/ha, 3 weeks after application
Outline: as §2

[10] = test system: rice plant; experiment: Test Example 5: effect on crop by foliage application, plastic box (symbol b); conditions: 320 g/ha, 3 weeks after application
Outline: (§3)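 Crop seed is sown alongside grass and broadleaf weed species in spots in sterilized diluvial soil, then covered to a depth of about 1.5 cm. Plants grow in a greenhouse kept at 25° C. to 30° C.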

[11] = test system: Leptochloa chinensis; experiment: Test Example 3: herbicidal effect by foliage application, Wagner pot (symbol D); conditions: application herbicide amount 320 g/ha
Outline: (§4)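 Alluvial soil was flooded to a depth of 0.1–0.5 cm, seeded with the weeds and rice, and kept in a greenhouse at 25–30 °C. After 14 days of growth, the foliage received a small-sprayer application of emulsion diluted to the intended rate; injury was rated at 3 weeks.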

[12] = test system: Galium spurium; experiment: Test Example 5: herbicidal effect by foliage application, plastic box (symbol Q); conditions: 320 g/ha, 3 weeks after application
Outline: as §2

[13] = test system: rapeseed; experiment: Test Example 5: effect on crop by foliage application, plastic box (symbol g); conditions: 320 g/ha, 3 weeks after application
Outline: as §3

[14] = test system: Lolium multiflorum Lam.; experiment: Test Example 5: herbicidal effect by foliage application, plastic box (symbol K); conditions: 320 g/ha, 3 weeks after application
Outline: as §2

[15] = test system: directly sowed rice plant; experiment: Test Example 3: effect on crop by foliage application, Wagner pot (symbol b); conditions: application herbicide amount 320 g/ha
Outline: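 Greenhouse culture at 25–30 °C of seeded rice, Cyperus difformis, Leptochloa chinensis and Echinochloa crus-galli var. crus-galli, in alluvial soil held under 0.1–0.5 cm of water in a Wagner pot.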

[16] = test system: Veronica persica; experiment: Test Example 5: herbicidal effect by foliage application, plastic box (symbol R); conditions: 320 g/ha, 3 weeks after application
Outline: as §2

[17] = test system: Chenopodium album; experiment: Test Example 5: herbicidal effect by foliage application, plastic box (symbol O); conditions: 320 g/ha, 3 weeks after application
Outline: as §2

[18] = test system: Cyperus difformis; experiment: Test Example 3: herbicidal effect by foliage application, Wagner pot (symbol E); conditions: application herbicide amount 320 g/ha
Outline: as §4

[19] = test system: beet; experiment: Test Example 5: effect on crop by foliage application, plastic box (symbol f); conditions: 320 g/ha, 3 weeks after application
Outline: as §3

[20] = test system: soybean; experiment: Test Example 5: effect on crop by foliage application, plastic box (symbol d); conditions: 320 g/ha, 3 weeks after application
Outline: as §3

[21] = test system: Abutilon theophrasti; experiment: Test Example 5: herbicidal effect by foliage application, plastic box (symbol M); conditions: 320 g/ha, 3 weeks after application
Outline: as §2

[22] = test system: Echinochloa crus-galli var. crus-galli; experiment: Test Example 3: herbicidal effect by foliage application, Wagner pot (symbol H); conditions: application herbicide amount 320 g/ha
Outline: as §4

[23] = test system: corn; experiment: Test Example 5: effect on crop by foliage application, plastic box (symbol c); conditions: 320 g/ha, 3 weeks after application
Outline: as §3

[24] = test system: Monochoria vaginalis; experiment: Test Example 2: herbicidal activity, application during weed generation in submerged conditions (symbol C); conditions: Table 23; application herbicide amount 320 g/ha; grade 0-5 by criteria of Test Example 1
Outline: (§5)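 Weeds emerging under flooded conditions were treated with compound formulated as an emulsion and diluted with water to the intended herbicide amount, poured onto the surface of 4 cm standing water. Seeds had been co-sown in alluvial soil; plants grew at 25° C. to 30° C. and were assessed after 3 weeks.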

[25] = test system: Stellaria media; experiment: Test Example 5: herbicidal effect by foliage application, plastic box (symbol P); conditions: 320 g/ha, 3 weeks after application
Outline: as §2

[26] = test system: Echinochloa crus-galli var. crus-galli; experiment: Test Example 5: herbicidal effect by foliage application, plastic box (symbol H); conditions: 320 g/ha, 3 weeks after application
Outline: as §2

[27] = test system: Amaranthus retroflexus; experiment: Test Example 5: herbicidal effect by foliage application, plastic box (symbol N); conditions: 320 g/ha, 3 weeks after application
Outline: as §2

[28] = test system: wheat; experiment: Test Example 5: effect on crop by foliage application, plastic box (symbol e); conditions: 320 g/ha, 3 weeks after application
Outline: as §3

[29] = test system: Scirpus juncoides; experiment: Test Example 2: herbicidal activity, application during weed generation in submerged conditions (symbol B); conditions: Table 23; application herbicide amount 320 g/ha; grade 0-5 by criteria of Test Example 1
Outline: as §5

[30] = test system: Echinochloa oryzacola Vasing.; experiment: Test Example 2: herbicidal activity, application during weed generation in submerged conditions (symbol A); conditions: Table 23; application herbicide amount 320 g/ha; grade 0-5 by criteria of Test Example 1
Outline: as §5

CON=C(C)CC1CC(O)=C(c2c(C)cc(Oc3ccc(C(F)(F)F)cn3)cc2C)C1=O (mixture of isomers) [6-054]
Effect grade on crop, a: transplanted rice plant [1]: 2 (Herbicidal ratio of 20% or higher and lower than 40%) | Herbicidal effect grade, C: Monochoria vaginalis [2]: 0 (Herbicidal ratio of 5% or lower (almost no effect)) | G: Setaria viridis, herbicidal effect grade [3]: 5 (Herbicidal ratio of 90% or more (almost completely withered)) | F: Digitaria ciliaris, herbicidal effect grade [4]: 4 (Herbicidal ratio of 70% or higher and lower than 90%) | Herbicidal effect grade, B: Scirpus juncoides [5]: 0 (Herbicidal ratio of 5% or lower (almost no effect)) | J: Alopecurus myosuroides, herbicidal effect grade [6]: 5 (Herbicidal ratio of 90% or more (almost completely withered)) | Herbicidal effect grade, A: Echinochloa oryzacola Vasing. [7]: 1 (Herbicidal ratio of 5% or higher and lower than 20%) | L: Apera spica-venti, herbicidal effect grade [8]: 5 (Herbicidal ratio of 90% or more (almost completely withered)) | I: Avena fatua, herbicidal effect grade [9]: 3 (Herbicidal ratio of 40% or higher and lower than 70%) | b: directly sowed rice plant, effect on crop grade [10]: 3 (Herbicidal ratio of 40% or higher and lower than 70%) | herbicidal effect on D (Leptochloa chinensis), grade 0-5 [11]: 5 (Herbicidal ratio of 90% or more (almost completely withered)) | Q: Galium spurium, herbicidal effect grade [12]: 0 (Herbicidal ratio of 5% or lower (almost no effect)) | g: rapeseed, effect on crop grade [13]: 1 (Herbicidal ratio of 5% or higher and lower than 20%) | K: Lolium multiflorum Lam., herbicidal effect grade [14]: 4 (Herbicidal ratio of 70% or higher and lower than 90%) | effect on crop b (directly sowed rice plant), grade 0-5 [15]: 5 (Herbicidal ratio of 90% or more (almost completely withered)) | R: Veronica persica, herbicidal effect grade [16]: 0 (Herbicidal ratio of 5% or lower (almost no effect)) | O: Chenopodium album, herbicidal effect grade [17]: 4 (Herbicidal ratio of 70% or higher and lower than 90%) | herbicidal effect on E, grade 0-5 [18]: 3 (Herbicidal ratio of 40% or higher and lower than 70%) | f: beet, effect on crop grade [19]: 0 (Herbicidal ratio of 5% or lower (almost no effect)) | d: soybean, effect on crop grade [20]: 0 (Herbicidal ratio of 5% or lower (almost no effect)) | M: Abutilon theophrasti, herbicidal effect grade [21]: 0 (Herbicidal ratio of 5% or lower (almost no effect)) | herbicidal effect on H (Echinochloa crus-galli var. crus-galli), grade 0-5 [22]: 5 (Herbicidal ratio of 90% or more (almost completely withered)) | c: corn, effect on crop grade [23]: 4 (Herbicidal ratio of 70% or higher and lower than 90%) | Herbicidal effect grade, C: Monochoria vaginalis [24]: 0 (Herbicidal ratio of 5% or lower (almost no effect)) | P: Stellaria media, herbicidal effect grade [25]: 0 (Herbicidal ratio of 5% or lower (almost no effect)) | H: Echinochloa crus-galli var. crus-galli, herbicidal effect grade [26]: 5 (Herbicidal ratio of 90% or more (almost completely withered)) | N: Amaranthus retroflexus, herbicidal effect grade [27]: 0 (Herbicidal ratio of 5% or lower (almost no effect)) | e: wheat, effect on crop grade [28]: 0 (Herbicidal ratio of 5% or lower (almost no effect)) | Herbicidal effect grade, B: Scirpus juncoides [29]: 1 (Herbicidal ratio of 5% or higher and lower than 20%) | Herbicidal effect grade, A: Echinochloa oryzacola Vasing. [30]: 2 (Herbicidal ratio of 20% or higher and lower than 40%)
